This is an account of results in PubChem BioAssay (NCI).

“And” between values parts separate entries of the source, which are not always exact repeats. Identical values can stand only once.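 Dose response: 5 concentrations. Exposure: 48 h. Format: 96-well plates. Endpoint: linear interpolation; highest concentration if not reached. GI50 = concentration required for 50% inhibition of growth. TGI marks complete inhibition of growth.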

Holding throughout (experiment): NCI tumour cell line growth inhibition, 48 h
Test [1] has as its system HCC-2998 colon.
Test [2] concerns HCT-15 colon.
The test system of test [3] is HL-60(TB) leukemia.
Test [4] concerns NCI-H226 lung.
Test [5] has as its system RXF 393 renal.
Test [6] deals with U251 CNS.
Test [7] concerns DMS 114 small cell lung.
The subject of test [8] is DMS 273 small cell lung.
Test [9] deals with KM20L2 colon.
The subject of test [10] is LXFL 529 NSCLC.
Test [11] concerns M19-MEL melanoma.
For test [12], the system named is SNB-78 CNS.
The test system of test [13] is XF 498 CNS.

Regarding `CC1(C)COC2=C(C1)C(=O)c1ccccc1C2=O`, the TGI amounted to 3.08 µM in test [1]; 2.41 µM in test [2]; 2.71 µM in test [3]; 4.8 µM in test [4]; 3.51 µM in test [5]; 2.78 µM in test [6].

In the case of `CCOC(=O)C1(C#N)CC1`, the TGI in test [1], in [2], in test [3], in [4], in test [5] and in test [6] was above 100 µM each time.

On to `COC1(CC[C@@H](C)COC2OC(CO)C(O)C(O)C2O)O[C@H]2C[C@H]3[C@@H]4CC=C5C[C@@H](OC6OC(CO)C(O)C(OC7OC(CO)C(O)C(O)C7O)C6OC6OC(C)C(O)C(O)C6O)CC[C@]5(C)[C@H]4CC[C@]3(C)[C@H]2[C@@H]1C` (stereo partly specified), for which the TGI in test [1] amounted to 10.6 µM; in test [2] it was 11.8 µM; in [3], 26.8 µM; in [4], 26.5 µM; in [5], 19.5 µM; in test [6], 4.13 µM.

On to `COc1ccc(-c2c(-c3ccccc3)c(C)nc3nc(SC)nc(SC)c23)cc1OC`, for which the TGI in [1] is above 100 µM; in test [2] it was above 100 µM; in [3], 8.49 µM; in test [4], 82.9 µM; in test [5], above 100 µM; in test [6], 28.3 µM.

As to `Nc1nc(Cl)c(Cl)c(NCC2(O)CCC2)n1`, the TGI in test [1], in [2], in test [3], in test [4], in [5] and in test [6] was above 100 µM in each case.

In the case of `CC(=O)NC1=NC(=O)/C(=C/c2ccc(/C=C3/C(=O)N=C(NC(C)=O)N3C)cc2)N1C`, the TGI in test [1], in test [2], in test [3], in test [4], in test [5] and in [6] was above 100 µM throughout.

Take `CC(Oc1ccccc1)C(=O)NNC(=O)OC(C)(C)C` (stereo unspecified): the TGI in test [1], in test [2], in [3], in [4], in [5] and in test [6] was above 100 µM throughout.

On to `Cn1cc(S(=O)(=O)NC(=O)Nc2ccc(Cl)cc2)c(=O)c2ccc(F)cc21`, for which the TGI in test [1], in [2], in [3], in [4], in test [5] and in test [6] was above 100 µM each time.

Consider `CC(=O)OCC1OC(n2c(S)c(C#N)c(-c3ccccc3)c(C#N)c2=O)C(OC(C)=O)C(OC(C)=O)C1OC(C)=O` (stereo unspecified), for which the GI50 in test [1] was > 100 µM and 18 µM; in [3], > 100 µM and 17.4 µM. In addition, the TGI in test [1] was > 100 µM and 32.9 µM; in test [2], above 100 µM; in test [3], > 100 µM and 35.5 µM; in [4], above 100 µM; in test [5], 59.4 µM and 59.1 µM; in [6] it was above 100 µM.

Regarding `C#CCN(Cc1ccc2nc(-c3ccccc3)c(N)nc2c1)c1cc(OC)c(OC)c(OC)c1`, the TGI in [7] is 37.7 µM; in test [8], 42.8 µM; in test [1], above 100 µM; in test [2], above 100 µM; in test [3], 41.4 µM; in test [9] it was above 100 µM. Also, the TGI in test [10] is 91.2 µM; in test [11] it was above 100 µM; in [4] it was 52 µM; in test [5], 96.2 µM; in test [12], 78.9 µM; in [6], above 100 µM. This molecule also yielded a TGI in [13] of 59.5 µM.

As to `COC(=O)C1(SC)C2CCC3C2CCC31` (stereo unspecified), the TGI in test [1], in [2], in [3], in test [4], in [5] and in [6] was above 100 µM each time.

For `C(=Nc1ccc(-c2nc3ccccc3s2)cc1)c1ccc[nH]1`, the TGI amounted to 31.9 µM in test [1]; 38.7 µM in [2]; 72.6 µM in test [3]; 35.6 µM in test [4]; 31.3 µM in test [5]; 27.7 µM in [6].

As to `COc1cc2c(/C=C3/C(=O)N(C)c4ccc(O)cc43)c(Cl)[nH]c2cc1C`, the TGI in [1] was found to be 0.85 µM; in test [2] it was 12.8 µM; in [3] it was 3.02 µM; in test [4] it was 16.2 µM; in test [5], 23.3 µM; in test [6], 17.6 µM.

On to `O=c1[nH]c(=O)n(COCc2ccccc2)cc1Nc1ccc(Br)cc1`, for which the TGI in test [1], in test [2], in [3], in test [4], in test [5] and in test [6] was above 100 µM each time.

As to `C[C@]12CC(c3ccccc3O1)C(C(=O)Nc1nc(C34CC5CC(CC(C5)C3)C4)cs1)C(=O)N2` (stereo partly specified), the TGI in test [1], in [2], in [3], in test [4], in test [5] and in test [6] was above 100 µM in each case.

As to `Cn1c(=O)c2c(nc3sc4ccccc4c(=O)n32)n(C)c1=O`, the TGI in test [1], in test [2], in test [3], in [4], in [5] and in test [6] was above 100 µM each time.

Regarding `O=C(/C=C(\C(=O)c1cccs1)c1cccs1)c1ccc(C(=O)/C=C(\C(=O)c2cccs2)c2cccs2)cc1`, the TGI in test [1], in test [2], in [3], in [4], in test [5] and in test [6] was above 100 µM in each case.
